The subject of test [1] is collagen induced arthritis in mice. Description: Effect on collagen induced arthritis in mice (anti-rheumatic activity). Particulars: 10 mg/kg, orally once a day for 3 weeks from 10 day after challenge. The class given is in vivo, male DBA/1 mice. On the procedure:
Effect on collagen induced arthritis in mice : (i) Test Method : Eight male DBA/1 mice were used per group. Type II bovine collagen was solublized in 0.1M acetic acid and emulsified in complete Freund's adjuvant (CFA . Mice were primed with 0.2 mg of Type II collagen in CFA intradermally at the base of the tail. Mice were challenged after 21 day with the same procedure. From 10 day after challenge, drug was administered orally once a day for 3 weeks and mice were inspected weekly for visual signs of arthritis. An arthritis index was used to grade limb 0-3, representing joint swelling and erythema (Grade 1), visible joint disorder (Grade 2 and detectable joint ankylosis (Grade 3).

For test [2], the system named is adjuvant arthritis in rats. Description: Effect on adjuvant arthritis in rats (antiinflammatory activity). Particulars: Rattus norvegicus, po, 552 h, orally once a day for 23 days, read-out: Inhibition of secondary lesion (uninjected paw). The class given is in vivo, female Sprague-Dawley rats.
For test [3], the system named is Delayed Type Hypersensitivity (DTH) response to bovine type II collagen. Description: Effect on Delayed Type Hypersensitivity (DTH) response to bovine type II collagen. The class given is in vivo, male DBA/1 mice. Particulars: oral, 24 hours after challenge, mice.
Test [4] has as its system inflammatory hyperalgesia induced by brewer's yeast in rats. Description: Inflammatory hyperalgesia induced by brewer's yeast in rats (analgesic activity). The conditions noted are these: oral, pain threshold 3 hours after yeast injection. Type of test: in vivo, male Sprague Dawley rats. On the procedure:
Inflammatory hyperalgesia induced by brewer's yeast in rats : (i) Test Method : Ten male Sprague Dawley rats were used per group. 0.1 ml of 5% brewer's yeast suspended in 0.5% methylcellulose was injected into the right hind paw. The pain threshold was determined 3 hours after yeast injection, by applying pressure to the foot and reading the pressure at which the rat withdrew the foot. The drugs were given orally 2 hours after yeast injection. The pain threshold in the treated animals was compared with that in the control animals.

Test [5] concerns platelet aggregation induced by collagen. Description: Effect on platelet aggregation induced by collagen (antithrombotic activity). Type of test: cell-based. The conditions noted are these: human platelet rich plasma, collagen 0.5 μg/ml, 37° C. On the procedure: Effect on platelet aggregation induced by collagen :
Platelet rich plasma (PRP) which contains 3×10^8 platelets/ml was prepared from human blood. To the 245 μl of PRP, 5 μl of drug solution* was added, and then stirred for 2 min at 37° C. To the solution 5 μl of collagen (0.5 μg/ml) was added as an aggregation inducer. Aggregation was measured by using an aggregometer (NKK HEMA-TRACER 1). Activities of inhibitors (test compounds) were expressed as IC50 values i.e. doses required to inhibit the platelet aggregation responses by 50%.
Drug solution* - - - Test compounds were dissolved in dimethylsulfoxide.

Regarding `CS(=O)(=O)c1ccc(-c2cc(C#N)nn2-c2ccc(F)cc2F)cc1` [15-6), 1-(2,4-Difluorophenyl)-5-[4-(methylsulfonyl)phenyl]pyrazole-3-carbonitrile], the “Inhibition of arthritis index” value in test [1] was 98.9%. For the same molecule, the inhibition in vivo at 3.2 mg/kg in test [2] was found to be 94.3%.
For `CCNc1ccc(-n2nc(C#N)cc2-c2ccc(S(C)(=O)=O)cc2)cc1` [37-2), 1-[4-(Ethylamino)phenyl]-5-[4-(methylsulfonyl)phenyl]pyrazole-3-carbonitrile], the inhibition in vivo at 3.2 mg/kg in test [2] came out at 81.7%.
Consider `CSc1ccc(-c2cc(C#N)nn2-c2ccc(F)cc2)cc1` [15-2), 1-(4-Fluorophenyl)-5-[4-(methylthio)phenyl]pyrazole-3-carbonitrile], for which the “per cent inhibition of DTH response compared with vehicle control” value in test [3] (0.32 mg/kg) amounted to 55.4%; in test [3] (1.0 mg/kg), 70.9%; in test [3] (3.2 mg/kg), 69.6%.
For the molecule `C[S+]([O-])c1ccc(-c2cc(C#N)nn2-c2ccc(F)cc2F)cc1` (centres unmarked) [33-2), 1-(2,4-Difluorophenyl)-5-[4-(methylsulfinyl)phenyl]pyrazole-3-carbonitrile], in test [1], the “Inhibition of arthritis index” value was 92.4%. In addition, the inhibition in vivo at 3.2 mg/kg in test [2] amounted to 87.1%.
Take `CNc1ccc(-n2nc(C(F)(F)F)cc2-c2ccc(S(C)(=O)=O)cc2)cc1.Cl` [45-8), 1-[4-(Methylamino)phenyl]-5-[4-(methylsulfonyl)-phenyl]-3-(trifluoromethyl)pyrazole hydrochloride]: the “Inhibition of arthritis index” value in test [1] was determined as 83.5%. Further, the inhibition in vivo at 3.2 mg/kg in test [2] was 80.8%.
With `CS(=O)(=O)c1ccc(-c2cc(C(F)(F)F)nn2-c2ccc(F)cc2)cc1` [11-3), 1-(4-Fluorophenyl)-5-[4-(methylsulfonyl)phenyl]-3-(trifluoromethyl)pyrazole], in test [1], the “Inhibition of arthritis index” value turned out to be 91.7%. Besides, the “Relative potency (Control = 1.0)” value in test [4] (32 mg/kg) came out at 1.35. Besides, in test [2], the inhibition in vivo at 10 mg/kg was found to be 100%.
Regarding `CS(=O)(=O)Nc1ccc(-n2nc(C#N)cc2-c2ccc(S(C)(=O)=O)cc2)cc1` [Example 36], the inhibition in vivo at 3.2 mg/kg in test [2] turned out to be 84.2%.
The IC50 is the point on the concentration scale where inhibition reaches its midpoint. Low values mean higher potency, high ones lower potency. Turning to `CS(=O)(=O)c1ccc(-c2cc(C#N)nn2-c2ccc(F)cc2)cc1` [Example 6, 1-(4-fluorophenyl)-5-[4-(methylsulfonyl)phenyl]pyrazole-3-carbonitrile], the IC50 in test [5] was 5.3 µM. The “per cent inhibition of DTH response compared with vehicle control” value was determined as 53.4% in test [3] (0.32 mg/kg), 61.5% in test [3] (1.0 mg/kg) and 74.3% in test [3] (3.2 mg/kg). For the same molecule, in test [1], the “Inhibition of arthritis index” value is on record as 78.6%. The “Relative potency (Control = 1.0)” value in test [4] (32 mg/kg) was determined as 1.34. Further, the inhibition in vivo at 10 mg/kg in test [2] was determined as 95.6%.
Consider `C[S+]([O-])c1ccc(-c2cc(C#N)nn2-c2ccc(F)cc2)cc1` (centres unmarked) [Example 24, 1-(4-fluorophenyl)-5-[4-(methylsulfinyl)phenyl]pyrazole-3-carbonitrile], for which the “per cent inhibition of DTH response compared with vehicle control” value is recorded as 45.9% in test [3] (0.32 mg/kg), 66.9% in test [3] (1.0 mg/kg) and 75.7% in test [3] (3.2 mg/kg). Also, the “Inhibition of arthritis index” value in test [1] turned out to be 90.5%. Also, in test [4] (10 mg/kg), the “Relative potency (Control = 1.0)” value worked out at 1.44. The inhibition in vivo at 3.2 mg/kg in test [2] worked out at 80.6%.
For the molecule `CC(C)Cc1ccc(C(C)C(=O)O)cc1` (centres unmarked) [Ibuprofen, reference compound], the inhibition in vivo at 10 mg/kg in test [2] was found to be 24.7%.
Consider `CS(=O)(=O)c1ccc(-c2ccnn2-c2ccc(F)cc2)cc1` [17-1), 1-(4-Fluorophenyl)-5-[4-(methylsulfonyl)phenyl]pyrazole], for which the inhibition in vivo at 3.2 mg/kg in test [2] turned out to be 80.6%.
